In patent US10323038B2, “Pyrazole compounds and methods of making and using same” (ABIDE THERAPEUTICS, INC., priority 2015, dated 2019):

Legend:
FAAH = FAAH (Mus musculus (Mouse), UniProt O08914); test: In vitro competitive activity-based protein profiling, FAAH (mouse); type: biochemical; details: for inhibition at 1 µM: read-out: FAAH % inh. 1 μM (mouse)
Method: (§1) In Vitro Competitive Activity-Based Protein Profiling.
(§2) Proteomes (mouse brain membrane fraction or cell lysates for mouse assays; human prefrontal cortex or cell membrane fractions for human assays) (50 μL, 1.0 mg/mL total protein concentration) were preincubated with varying concentrations of inhibitors at 37° C. After 30 min, FP—Rh or HT-01 (1.0 μL, 50 μM in DMSO) was added and the mixture was incubated for another 30 min at 37° C. Reactions were quenched with SDS loading buffer (15 μL-4×) and run on SDS-PAGE. Following gel imaging, serine hydrolase activity was determined by measuring fluorescent intensity of gel bands corresponding to MAGL and FAAH using ImageJ 1.43u software.

MAGL = MAGL (Mus musculus (Mouse), UniProt O35678); test: In vitro competitive activity-based protein profiling, MAGL (mouse); type: biochemical; details: for inhibition at 1 µM: read-out: MAGL % inh. 1 μM (mouse)
Chain of MAGL (O35678 whole entry): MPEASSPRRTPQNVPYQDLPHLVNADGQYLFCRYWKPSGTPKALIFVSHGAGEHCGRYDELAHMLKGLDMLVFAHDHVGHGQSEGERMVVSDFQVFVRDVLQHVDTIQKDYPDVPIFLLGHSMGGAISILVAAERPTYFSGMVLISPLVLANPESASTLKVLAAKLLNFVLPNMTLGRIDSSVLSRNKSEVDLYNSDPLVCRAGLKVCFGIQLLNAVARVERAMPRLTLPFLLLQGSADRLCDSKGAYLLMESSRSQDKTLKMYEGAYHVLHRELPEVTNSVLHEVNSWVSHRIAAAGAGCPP
Method: as §1, §2

Chain of FAAH (O08914 whole entry): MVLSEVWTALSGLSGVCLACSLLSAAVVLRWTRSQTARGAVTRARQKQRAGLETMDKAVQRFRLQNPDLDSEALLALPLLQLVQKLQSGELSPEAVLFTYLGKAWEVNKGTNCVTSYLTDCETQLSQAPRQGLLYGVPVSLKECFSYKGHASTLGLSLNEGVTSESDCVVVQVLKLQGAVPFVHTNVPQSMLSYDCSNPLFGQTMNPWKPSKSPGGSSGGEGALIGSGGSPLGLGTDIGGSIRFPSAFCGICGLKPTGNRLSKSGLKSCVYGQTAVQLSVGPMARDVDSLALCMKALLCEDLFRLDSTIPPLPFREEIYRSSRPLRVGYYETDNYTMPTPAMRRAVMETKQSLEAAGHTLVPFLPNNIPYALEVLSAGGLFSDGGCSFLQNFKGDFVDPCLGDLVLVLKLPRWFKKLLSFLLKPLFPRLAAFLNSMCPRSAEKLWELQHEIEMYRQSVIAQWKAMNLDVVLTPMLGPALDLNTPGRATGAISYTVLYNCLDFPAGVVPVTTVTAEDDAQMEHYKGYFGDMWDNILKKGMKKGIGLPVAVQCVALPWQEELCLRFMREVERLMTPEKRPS

SMILES	IC50 (FAAH) [nM]	inhibition at 1 µM (FAAH) [%]	IC50 (MAGL) [nM]	inhibition at 1 µM (MAGL) [%]
CC(=O)N(C)c1cnn(C(=O)N2CCC3(CCN(Cc4ccc(N5CCOCC5)cc4Cl)C3)C2)c1 (centres unmarked) [Example 4, N-(1-(7-(2-chloro-4-morpholinobenzyl)-2,7-diazaspiro[4.4]nonane-2-carbonyl)-1H-pyrazol-4-yl)-N-methylacetamide]	≤ 100	≥ 75	100 to 1000	≥ 75
CC(=O)N(C)c1cnn(C(=O)N2CCC3(CCN(Cc4ccc(-c5cncnc5)cc4Cl)C3)C2)c1 (centres unmarked) [Example 262, N-(1-(7-(2-chloro-4-(pyrimidin-5-yl)benzyl)-2,7-diazaspiro[4.4]nonane-2-carbonyl)-1H-pyrazol-4-yl)-N-methylacetamide]	–	≥ 75	–	≥ 75
CC(=O)N(C)c1cnn(C(=O)N2C[C@H]3C[C@@H](NCc4ccc(Cl)cc4)C[C@H]3C2)c1 [Example 135, N-(1-(cis-5-(4-chlorobenzylamino)octahydrocyclopenta[c]pyrrole-2-carbonyl)-1H-pyrazol-4-yl)-N-methylacetamide]	–	≥ 75	–	≥ 75
CC(=O)N(C)c1cnn(C(=O)N2CC3CN(Cc4cccc(C)c4)CC3C2)c1 (centres unmarked) [Example 92, N-methyl-N-(1-(5-(3-methylbenzyl)octahydropyrrolo[3,4-c]pyrrole-2-carbonyl)-1H-pyrazol-4-yl)acetamide]	≤ 100	≥ 75	100 to 1000	≥ 75
CC(=O)N(C)c1cnn(C(=O)N2C[C@H]3C[C@H](N(C)Cc4cccc(Cl)c4)C[C@H]3C2)c1 [Example 147, N-(1-(trans-5-((3-chlorobenzyl)(methyl)amino)octahydrocyclopenta[c]pyrrole-2-carbonyl)-1H-pyrazol-4-yl)-N-methylacetamide]	≤ 100	≥ 75	≤ 100	≥ 75
CC(=O)N(C)c1cnn(C(=O)N2CC3CN(Cc4cc(Cl)ccc4Cl)CC3C2)c1 (centres unmarked) [Example 109, N-(1-(5-(2,5-dichlorobenzyl)octahydropyrrolo[3,4-c]pyrrole-2-carbonyl)-1H-pyrazol-4-yl)-N-methylacetamide]	≤ 100	≥ 75	≤ 100	≥ 75
CC(=O)N(C)c1cnn(C(=O)N2CCC3(CC2)CN(Cc2ccc(F)cc2)C3)c1 [Example 31, N-(1-(2-(4-fluorobenzyl)-2,7-diazaspiro[3.5]nonane-7-carbonyl)-1H-pyrazol-4-yl)-N-methylacetamide]	–	25 to 50	–	≥ 75
CC(=O)N(C)c1cnn(C(=O)N2CCC3(CCN(Cc4ccc(-c5nccs5)cc4Cl)C3)C2)c1 (centres unmarked) [Example 269, N-(1-(7-(2-chloro-4-(thiazol-2-yl)benzyl)-2,7-diazaspiro[4.4]nonane-2-carbonyl)-1H-pyrazol-4-yl)-N-methylacetamide]	–	≥ 75	–	≥ 75
CC(=O)N(C)c1cnn(C(=O)N2CCN(Cc3ccccc3N3CCOCC3)CC2)c1 [Example 216, N-methyl-N-(1-(4-(2-morpholinobenzyl)piperazine-1-carbonyl)-1H-pyrazol-4-yl)acetamide]	–	0 to 25	–	≥ 75
CC(=O)N(C)c1cnn(C(=O)N2CCC3(CC2)CN(Cc2ccc(Cl)c(Cl)c2)C3)c1 [Example 24, N-(1-(2-(3,4-dichlorobenzyl)-2,7-diazaspiro[3.5]nonane-7-carbonyl)-1H-pyrazol-4-yl)-N-methylacetamide]	≤ 100	≥ 75	≤ 100	≥ 75
CC(=O)N(C)c1cnn(C(=O)N2CCC3(CC2)CN(Cc2cccc(C(F)(F)F)c2)C3)c1 [Example 38, N-methyl-N-(1-(2-(3-(trifluoromethyl)benzyl)-2,7-diazaspiro[3.5]nonane-7-carbonyl)-1H-pyrazol-4-yl)acetamide]	100 to 1000	≥ 75	≤ 100	≥ 75
CC(=O)N(C)c1cnn(C(=O)N2C[C@H]3C[C@H](N(C)Cc4ccc(N5C6CCC5COC6)cc4C(F)(F)F)C[C@H]3C2)c1 [Example 155, N-(1-(trans-5-((4-(3-oxa-8-azabicyclo[3.2.1]octan-8-yl)-2-(trifluoromethyl)benzyl)(methyl)amino)octahydrocyclopenta[c]pyrrole-2-carbonyl)-1H-pyrazol-4-yl)-N-methylacetamide]	–	≥ 75	–	≥ 75
CC(=O)N(C)c1cnn(C(=O)N2CC3CN(Cc4cc(C(F)(F)F)cc(C(F)(F)F)c4)CC3C2)c1 (centres unmarked) [Example 116, N-(1-(5-(3,5-bis(trifluoromethyl)benzyl)octahydropyrrolo[3,4-c]pyrrole-2-carbonyl)-1H-pyrazol-4-yl)-N-methylacetamide]	≤ 100	≥ 75	≤ 100	≥ 75
CC(=O)N(C)c1cnn(C(=O)N2C[C@H]3C[C@H](N(C)Cc4cc(Cl)ccc4C(F)(F)F)C[C@H]3C2)c1 [Example 164, N-(1-(trans-5-((5-chloro-2-(trifluoromethyl)benzyl)(methyl)amino)octahydrocyclopenta[c]pyrrole-2-carbonyl)-1H-pyrazol-4-yl)-N-methylacetamide]	≤ 100	≥ 75	≤ 100	≥ 75
COc1cccc(CN2CC3(CCN(C(=O)n4cc(N(C)C(C)=O)cn4)CC3)C2)c1 [Example 37, N-(1-(2-(3-methoxybenzyl)-2,7-diazaspiro[3.5]nonane-7-carbonyl)-1H-pyrazol-4-yl)-N-methylacetamide]	–	50 to 75	–	50 to 75
CC(=O)N(C)c1cnn(C(=O)N2CCC3(CCN(Cc4ccc(Cl)cc4Cl)C3)C2)c1 (centres unmarked) [Example 51, N-(1-(7-(2,4-dichlorobenzyl)-2,7-diazaspiro[4.4]nonane-2-carbonyl)-1H-pyrazol-4-yl)-N-methylacetamide]	≤ 100	≥ 75	≤ 100	≥ 75
CC(=O)N(C)c1cnn(C(=O)N2CC3CN(Cc4cc(Cl)cc(N5CCC6(CCOCC6)C5)c4)CC3C2)c1 (centres unmarked) [Example 247, N-(1-(5-(3-chloro-5-(8-oxa-2-azaspiro[4.5]decan-2-yl)benzyl)octahydropyrrolo[3,4-c]pyrrole-2-carbonyl)-1H-pyrazol-4-yl)-N-methylacetamide]	–	≥ 75	–	≥ 75
CC(=O)N(C)c1cnn(C(=O)N2CCC3(CCN(Cc4ccc(C)cc4Cl)C3)C2)c1 (centres unmarked) [Example 55, N-(1-(7-(2-chloro-4-methylbenzyl)-2,7-diazaspiro[4.4]nonane-2-carbonyl)-1H-pyrazol-4-yl)-N-methylacetamide]	≤ 100	≥ 75	100 to 1000	≥ 75
CC(=O)N(C)c1cnn(C(=O)N2CCN(Cc3ccc(N4CCOCC4)cc3)CC2)c1 [Example 200, N-methyl-N-(1-(4-(4-morpholinobenzyl)piperazine-1-carbonyl)-1H-pyrazol-4-yl)acetamide]	–	0 to 25	–	50 to 75
CC(=O)N(C)c1cnn(C(=O)N2CCN(Cc3cccc(Cl)c3)CC2)c1 [Example 193, N-(1-(4-(3-chlorobenzyl)piperazine-1-carbonyl)-1H-pyrazol-4-yl)-N-methylacetamide]	100 to 1000	≥ 75	100 to 1000	≥ 75
CC(=O)N(C)c1cnn(C(=O)N2CC3CN(Cc4ccc(N5C6CCC5COC6)cc4C(F)(F)F)CC3C2)c1 (centres unmarked) [Example 102, N-(1-(5-(4-(3-oxa-8-azabicyclo[3.2.1]octan-8-yl)-2-(trifluoromethyl)benzyl)octahydropyrrolo[3,4-c]pyrrole-2-carbonyl)-1H-pyrazol-4-yl)-N-methylacetamide]	–	≥ 75	–	≥ 75
CC(=O)N(C)c1cnn(C(=O)N2CC3CN(Cc4cccc(Oc5cccc(Cl)c5)c4)CC3C2)c1 (centres unmarked) [Example 244, N-(1-(5-(3-(3-chlorophenoxy)benzyl)octahydropyrrolo [3,4-c]pyrrole-2-carbonyl)-1H-pyrazol-4-yl)-N-methylacetamide]	≤ 100	≥ 75	≤ 100	≥ 75
CC(=O)N(C)c1cnn(C(=O)N2CC3CN(Cc4ccc(F)c(N5CCCC5)c4)CC3C2)c1 (centres unmarked) [Example 100, N-(1-(5-(4-fluoro-3-(pyrrolidin-1-yl)benzyl)octahydropyrrolo[3,4-c]pyrrole-2-carbonyl)-1H-pyrazol-4-yl)-N-methylacetamide]	≤ 100	≥ 75	≤ 100	≥ 75
CC(=O)N(C)c1cnn(C(=O)N2CC3CN(Cc4ccc5c(c4)OC(F)(F)O5)CC3C2)c1 (centres unmarked) [Example 242, N-(1-(5-((2,2-difluorobenzo[d][1,3]dioxol-5-yl)methyl)octahydropyrrolo[3,4-c]pyrrole-2-carbonyl)-1H-pyrazol-4-yl)-N-methylacetamide]	≤ 100	≥ 75	≤ 100	≥ 75
CC(=O)N(C)c1cnn(C(=O)N2CC3CN(Cc4ccc(C(F)(F)F)cc4)CC3C2)c1 (centres unmarked) [Example 14, N-methyl-N-(1-(5-(4-(trifluoromethyl)benzyl)octahydropyrrolo[3,4-c]pyrrole-2-carbonyl)-1H-pyrazol-4-yl)acetamide]	≤ 100	≥ 75	≤ 100	≥ 75
